Literature values as cited in patent US11020390B2, “Bioequivalent pharmaceutical composition of vortioxetine hydrobromide” (UNICHEM LABORATORIES LTD, priority 2017, dated 2021).

solubility in water: relatively poor
SMILES: Br.Cc1ccc(Sc2ccccc2N2CCNCC2)c(C)c1 [vortioxetine hydrobromide, 1-[2-(2,4-Dimethyl-phenylsulfanyl)-phenyl]-piperazine, hydrobromide]
